Tested on: myocardial ischemia reperfusion in rat
Experiment: Therapeutic effect on myocardial ischemia reperfusion in rat (coronary ligation 45 min, reperfusion 2 h, TCC staining of heart sections)
Format: in vivo, Wistar rats
Conditions: Group D
Experimental: Wistar rats (male, 200˜240 g) were divided into groups and administered with different dosages of rhNRG-1, placebo or rhThymosin-β4 (as shown in Table 1) after anaesthetized with intra-abdominal injection of 20% urethane (5 ml/kg). Thirty minutes after the drug started to be given to the rats, the anterior descending limb of the left coronary artery was ligated for 45 minutes to cause partial myocardium turned white obviously in the ligation area. After that the ligation thread was loosen to keep coronary blood flow for 2 hours and then take out the heart rapidly and wash vascular fat away with normal saline, and then freeze the heart in −30° C. for one hour.
Cut the heart parallelly from apex to base along coronary sulcus to myocardium sections with the thickness of 1 mm, and then put them into TCC dye liquor for 20 min in 37° C. in a shaker. After staining extra dye was washed immediately with water, and then the sections were put into 4% formalin for one hour. Photo and analyze the total size and the infarction size of were analyzed with Image Analysis Software. Infarction size ratio equals to the ratio of the infarction size and the total size of the myocardium section.

rhThymosin-β4: produced by Northland (Beijing) Bio-Technology Co Ltd, batch number: 20050728; comparator drug of Group D (SDKPDMAEIEKFDKSKLKKTETQEKNPLPSKETIEQEKQAGES; Thymosin beta-4; UniProt P62328 2-44, looked up)
Infarction size compared with other groups (2.5 mg/kg single intraperitoneal injection): no significant difference with other groups | The myocardium infarction size ratio (2.5 mg/kg single intraperitoneal injection 30 min before ligation, infarction size / total size of myocardium section, mean ± spread, 2.5 mg/kg): 0.151±0.030
